Data taken from BindingDB's records for doi:10.1021/acs.jmedchem.6b01196 (National Institute of Biological Sciences, 2017).

Legend:
[1] = Inhibition of RIP1 in human HT-29 cells assessed as reduction in TNFalpha/z-VAD-FMK-induced necrosis after 24 hrs by Cell Titer-Glo luminescent cell viability assay
[2] = as above; remark: listed apart in the source
[3] = Inhibition of RIP1 in mouse L929 cells assessed as reduction in TNFalpha/z-VAD-FMK-induced necrosis after 6 hrs by Cell Titer-Glo luminescent cell viability assay

Compound	EC50 [1]	other results
CC1CCCC(C)N1C(=O)N(C)Cc1cc(F)cc(F)c1F (stereo not given)	1530 nM	–
CCC(C)(C)C(=O)N(C)Cc1ccncc1F	–	EC50 [2]: > 10000 nM
CCC(C)(C)C(=O)N(C)Cc1ccncc1	> 10000 nM	–
CN(Cc1cc(F)cc(F)c1F)C(=O)C(C)(C)C	98 nM	–
CN(Cc1cc(F)cc(F)c1F)C(=O)C1(C)CC1	> 10000 nM	–
CCC(C)(C)C(=O)NCc1ccccc1Br	–	EC50 [2]: 8560 nM
CCC(C)(C)C(=O)NCc1ccccc1F	898 nM	–
CCC(C)(C)C(=O)N(C)Cc1cccc(F)c1	72 nM	–
CC(C)N(C)C(=O)N(C)Cc1cc(F)cc(F)c1F	> 3000 nM	–
CCC(C)(C)C(=O)NC(C)(C)c1ccccc1	> 10000 nM	–
CCC(C)(C)C(=O)NC(C)c1ccccc1 (stereo not given)	> 10000 nM	–
CC(C)N(C(=O)N(C)Cc1cc(F)cc(F)c1F)C(C)C	> 3000 nM	–
CN(Cc1cc(F)cc(F)c1F)C(=O)C1(C(F)(F)F)CCCC1	1230 nM	–
CCC(C)(C)C(=O)N(C)Cc1cccc(Cl)c1	–	EC50 [2]: 628 nM
CCC(C)(C)C(=O)N(C)Cc1cc(F)cc(F)c1F	–	EC50 [2]: 12 nM
CN(Cc1cc(F)cc(F)c1F)C(=O)C1(C(F)(F)F)CCC1	656 nM	–
CCC(C)(C)C(=O)N(C)Cc1ccc(F)cc1F	627 nM	–
CCC(C)(C)C(=O)N(C)Cc1ccc(F)cc1	815 nM	–
CCC(C)(C)C(=O)NCc1cccc(Br)c1	> 10000 nM	–
CCC(C)(C)C(=O)N(O)Cc1cc(F)cc(F)c1F	74 nM	–
CCC(C)(C)C(=O)N(O)Cc1ccc(F)c(F)c1	56 nM	–
CCC(C)(C)C(=O)N(C)Cc1ccc(C)s1	378 nM	–
CCC(C)(C)C(=O)N(C)Cc1ccn(C)n1	> 10000 nM	–
CCC(C)(C)C(=O)N(C)Cc1ccccc1F	–	EC50 [2]: 125 nM
CCC(C)(C)C(=O)N(O)Cc1ccc(F)c(F)c1F	262 nM	–
CCC(C)(C)C(=O)N(C)Cc1cccs1	221 nM	–
CCC(C)(C)C(=O)NC1(c2ccccc2)CC1	> 5000 nM	–

Compound	EC50 [1]	other results
CCC(C)(C)C(=O)N(C)Cc1cc(C)c(C)s1	1310 nM	–
CC1CCCCN1C(=O)N(C)Cc1cc(F)cc(F)c1F (stereo not given)	> 3000 nM	–
CCC(C)(C)C(=O)N(C)Cc1c(F)cc(F)cc1F	1250 nM	–
CN(Cc1cc(F)cc(F)c1F)C(=O)C(C)(C)CO	> 3000 nM	–
CCC(C)(C)C(=O)N(C)Cc1cnc(C)s1	> 10000 nM	–
CN(Cc1cc(F)cc(F)c1F)C(=O)C1CCC1	8240 nM	–
CCC(C)(C)C(=O)N(C)Cc1cc(F)ccc1F	36 nM	–
COC(C)(C)C(=O)N(C)Cc1cc(F)cc(F)c1F	> 10000 nM	–
CCC(C)(C)C(=O)N(C)Cc1cccnc1	1740 nM	–
CCC(C)(C)C(=O)N(O)Cc1ccc(F)cc1F	198 nM	–
CCC(C)(C)C(=O)N(O)Cc1ccccc1	28 nM	EC50 [3]: 27 nM
CCC(C)(C)C(=O)NC(CO)c1ccccc1 (stereo not given)	1080 nM	–
CCC(C)(C)C(=O)N(O)Cc1cc(F)c(F)c(F)c1	49 nM	–
CCC(C)(C)C(=O)N(C)Cc1ccccc1Cl	> 10000 nM	–
CCN(Cc1ccccc1F)C(=O)C(C)(C)CC	> 10000 nM	–
CCC(C)(C)C(=O)N(C)Cc1cccc(F)c1F	–	EC50 [2]: 58 nM
CCC(C)(C)C(=O)N(C)Cc1cccc(Br)c1	1230 nM	–
CCC(C)(C)C(=O)N(C)C(C)c1ccccc1 (stereo not given)	> 10000 nM	–
CN(Cc1cc(F)cc(F)c1F)C(=O)C1(C)CCCCC1	490 nM	–
CCC(C)(C)C(=O)N(C)Cc1ccccc1	457 nM	–
CCC(C)(C)C(=O)N(O)Cc1ccc(F)cc1	64 nM	–
CCC(C)(C)C(=O)NCc1ccccc1	4100 nM	–
CCC(C)(C)C(=O)N(C)Cc1cccc(O)c1	> 3000 nM	–
CCC(C)(C)C(=O)N(C)Cc1ccco1	628 nM	–
CCC(C)(C)C(=O)N(C)Cc1sccc1C	2530 nM	–
CCC(C)(C)C(=O)N(C)C(C)(C)c1ccccc1	> 10000 nM	–
CCC(C)(C)C(=O)N(C)C(CO)c1ccccc1 (stereo not given)	> 10000 nM	–
